Data published in US12091426B2, “Bifunctional degraders of hematopoietic progenitor kinase and therapeutic uses thereof” (Nurix Therapeutics, Inc., priority 2021, dated 2024).

Target: T1, HPK1 (Homo sapiens, UniProt Q92918)
T1 construct: A HiBiT tag was introduced by CRISPR on the N terminus of HPK1 in Jurkat cells; host or cells: Jurkat cells (ATCC TIB-152), monoclonal line with CRISPR knock-in of HiBiT at the endogenous HPK1 locus
Experiment: HPK1 Cellular HiBit Degradation Assay
Type: cell-based
Settings: HiBiT HPK1 Jurkat cells, 24 hrs; for DC50: concentration at which 50% of HPK1 was remaining, read-out: DC50 Category; for Dmax: Jurkat, maximum degradation vs DMSO vehicle control, read-out: Dmax Category
Procedure: HPK1 Cellular HiBit Degradation Assay
A HiBiT tag was introduced by CRISPR on the N terminus of HPK1 in Jurkat cells (ATCC® TIB-152) to allow quantitation of HPK1 protein levels in a monoclonal human cell line. Cells were plated at 1×10^6 cells/mL, 30 uL/well (3×10^4 cells/well) in complete RPMI 1640 (10% heat inactivated FBS, 1% L-glutamine) in 384-well assay plates (Corning, cat. no. 3570). HPK1 chimeric targeting molecules (CTMs) were added in an 11 point dilution series (11-point, 3.16-fold) with a final assay concentration range of 10 uM to 0.1 nM. The parental Jurkat cell line, with no HiBiT insertion, was included in the assay as a background control. Cell treated with a DMSO vehicle control was used to determine the maximum signal defining 100% HPK1 in the cell. Cells were incubated for 24 hrs at 37° C./5% CO2. Following incubation, 30 uL of complete Nano-Glo HiBiT Lytic Detection Reagent (Promega cat. no. N3040) was added. Cells were incubated for 10 min at room temperature and luminescence was read on an EnVision plate reader (Perkin Elmer, 0.1 sec per well). Viability was assessed in the same plate using Cell Titer Fluor (Promega) and read on an EnVision plate reader to ensure results were not the effect of cytotoxicity. Percent HPK1 remaining per sample was calculated as follows:
[formula] % HPK1 remaining values were plotted as a function of compound concentration and curves were fit using the Prism (GraphPad) equation “log(inhibitor) vs response−Variable slope (four parameters)”. Dmax values were calculated by identifying the lowest % remaining and subtracting from 100. DC50 values were determined by extrapolating from the curve the concentration at which 50% of HPK1 was remaining based on the DMSO control.
HiBiT HPK1 Jurkat cell lines were used to evaluate the total protein levels of HPK1 in a robust human cellular high throughput format. The level of HPK1 remaining following treatment with HPK1 CTMs is reported as Dmax (maximum degradation) achieved at 24 hours when compared to vehicle treated controls. […] These decreases were not a result of cytotoxicity measured by a viability assessment.

T1 sequence (Q92918 whole entry): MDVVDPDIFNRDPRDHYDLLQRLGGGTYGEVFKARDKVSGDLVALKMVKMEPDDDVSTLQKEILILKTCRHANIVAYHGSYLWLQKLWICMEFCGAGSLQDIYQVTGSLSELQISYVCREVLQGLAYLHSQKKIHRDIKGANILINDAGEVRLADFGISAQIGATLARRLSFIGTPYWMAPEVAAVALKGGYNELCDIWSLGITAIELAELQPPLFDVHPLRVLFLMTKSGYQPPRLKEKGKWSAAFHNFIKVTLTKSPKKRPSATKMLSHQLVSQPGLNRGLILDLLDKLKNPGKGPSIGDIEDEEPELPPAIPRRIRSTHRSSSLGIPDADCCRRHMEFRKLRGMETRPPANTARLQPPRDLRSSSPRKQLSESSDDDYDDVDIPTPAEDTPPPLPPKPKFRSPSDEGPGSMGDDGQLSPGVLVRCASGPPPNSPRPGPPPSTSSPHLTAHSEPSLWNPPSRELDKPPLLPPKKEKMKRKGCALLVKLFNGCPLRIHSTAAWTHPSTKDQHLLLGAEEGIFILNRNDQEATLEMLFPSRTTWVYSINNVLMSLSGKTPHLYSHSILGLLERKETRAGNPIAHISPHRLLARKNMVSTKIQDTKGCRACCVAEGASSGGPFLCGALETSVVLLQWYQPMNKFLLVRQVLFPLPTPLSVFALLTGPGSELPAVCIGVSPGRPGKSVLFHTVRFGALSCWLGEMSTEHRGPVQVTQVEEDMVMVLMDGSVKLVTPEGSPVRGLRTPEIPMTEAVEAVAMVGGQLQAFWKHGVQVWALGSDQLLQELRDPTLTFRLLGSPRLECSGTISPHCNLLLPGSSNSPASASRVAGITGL

Row | SMILES | DC50 [nM] | Dmax [%]
1 | CC(C)n1cnc2cc(-c3ccc4c(c3)N([C@H]3C[C@@H](N5CCCCC5)C3)C(=O)C43CCN(C(=O)[C@H]4CC[C@@H](C(=O)N5CCC(Nc6ccc(C7CCC(=O)NC7=O)cn6)CC5)CC4)CC3)nc(NC3CC3)c21 (mixture of isomers) [Example 29, (3RS)-3-[6-({1-[(1S,4S)-4-({6-[4-(cyclopropylamino)-3-(propan-2-yl)-3H-imidazo[4,5-c]pyridin-6-yl]-2-oxo-1-[(1S,3S)-3-(piperidin-1-yl)cyclobutyl]-1,2-dihydrospiro[indole-3,4′-piperidin]-1′-yl}carbonyl)cyclohexanecarbonyl]piperidin-4-yl}amino)pyridin-3-yl]piperidine-2,6-dione] | < 100 | 50 to 70
2 | CC(C)n1cnc2cc(-c3ccc4c(c3)N([C@H]3C[C@@H](N5CCCCC5)C3)C(=O)C43CCN(C(=O)[C@H]4CC[C@@H](C(=O)N5CCC(Nc6ccc(C7CCC(=O)NC7=O)cn6)CC5)CC4)CC3)nc(Nc3ccccc3F)c21 (mixture of isomers) [Example 30, (3RS)-3-[6-({1-[(1S,4S)-4-[(6-{4-[(2-fluorophenyl)amino]-3-(propan-2-yl)-3H-imidazo[4,5-c]pyridin-6-yl}-2-oxo-1-[(1S,3S)-3-(piperidin-1-yl)cyclobutyl]-1,2-dihydrospiro[indole-3,4′-piperidin]-1′-yl)carbonyl]cyclohexanecarbonyl]piperidin-4-yl}amino)pyridin-3-yl]piperidine-2,6-dione] | < 100 | 70 to 85
3 | CC(C)n1cnc2cc(-c3ccc4c(c3)N([C@H]3C[C@@H](N5CCCCC5)C3)C(=O)C43CCN(C(=O)[C@H]4CC[C@@H](C(=O)N5CCN(c6ccc7c(c6)C(=O)N(C6CCC(=O)NC6=O)C7=O)CC5)CC4)CC3)nc(Nc3ccccc3F)c21 (mixture of isomers) [Example 31, 2-[(3RS)-2,6-dioxopiperidin-3-yl]-5-{4-[(1S,4s)-4-[(6-{4-[(2-fluorophenyl)amino]-3-(propan-2-yl)-3H-imidazo[4,5-c]pyridin-6-yl}-2-oxo-1-[(1S,3S)-3-(piperidin-1-yl)cyclobutyl]-1,2-dihydrospiro[indole-3,4′-piperidin]-1′-yl)carbonyl]cyclohexanecarbonyl]piperazin-1-yl}-2,3-dihydro-1H-isoindole-1,3-dione] | 100 to 500 | 70 to 85
4 | CC(C)n1cnc2cc(-c3ccc4c(c3)N([C@H]3C[C@@H](N5CCCCC5)C3)C(=O)C43CCN(C(=O)[C@H]4CCN(C(=O)C5CCN(c6ccc(C7CCC(=O)NC7=O)cn6)CC5)C4)CC3)nc(NC3CC3)c21 (mixture of isomers) [Example 32, (3RS)-3-(6-{4-[(3S)-3-({6-[4-(cyclopropylamino)-3-(propan-2-yl)-3H-imidazo[4,5-c]pyridin-6-yl]-2-oxo-1-[(1S,3S)-3-(piperidin-1-yl)cyclobutyl]-1,2-dihydrospiro[indole-3,4′-piperidin]-1′-yl}carbonyl)pyrrolidine-1-carbonyl]piperidin-1-yl}pyridin-3-yl)piperidine-2,6-dione] | 100 to 500 | 50 to 70
5 | CC(C)n1cnc2cc(-c3ccc4c(c3)N([C@H]3C[C@@H](N5CCCCC5)C3)C(=O)C43CCN(C(=O)[C@H]4CCN(C(=O)C5CCN(c6ccc(C7CCC(=O)NC7=O)cn6)CC5)C4)CC3)nc(Nc3ccccc3F)c21 (mixture of isomers) [Example 33, (3RS)-3-(6-{4-[(3S)-3-[(6-{4-[(2-fluorophenyl)amino]-3-(propan-2-yl)-3H-imidazo[4,5-c]pyridin-6-yl}-2-oxo-1-[(1S,3S)-3-(piperidin-1-yl)cyclobutyl]-1,2-dihydrospiro[indole-3,4′-piperidin]-1′-yl)carbonyl]pyrrolidine-1-carbonyl]piperidin-1-yl}pyridin-3-yl)piperidine-2,6-dione] | < 100 | 70 to 85
6 | CC(C)n1cnc2cc(-c3ccc4c(c3)N([C@H]3C[C@@H](N5CCCCC5)C3)C(=O)C43CCN(C(=O)[C@H]4CCN(C(=O)C5CCN(c6ccc(C7CCC(=O)NC7=O)cn6)CC5)C4)CC3)nc(Nc3ccncc3F)c21 (mixture of isomers) [Example 34, (3RS)-3-(6-{4-[(3S)-3-[(6-{4-[(3-fluoropyridin-4-yl)amino]-3-(propan-2-yl)-3H-imidazo[4,5-c]pyridin-6-yl}-2-oxo-1-[(1S,3S)-3-(piperidin-1-yl)cyclobutyl]-1,2-dihydrospiro[indole-3,4′-piperidin]-1′-yl)carbonyl]pyrrolidine-1-carbonyl]piperidin-1-yl}pyridin-3-yl)piperidine-2,6-dione] | 100 to 500 | 50 to 70
7 | CC(C)n1cnc2cc(-c3ccc4c(c3)N([C@H]3C[C@@H](N5CCCCC5)C3)C(=O)C43CCN(C(=O)C[C@@H]4CCN(C(=O)[C@H]5CC[C@@H](Nc6cccc7c6C(=O)N(C6CCC(=O)NC6=O)C7=O)CC5)C4)CC3)nc(NC3CC3)c21 (mixture of isomers) [Example 35, 2-[(3RS)-2,6-dioxopiperidin-3-yl]-4-{[(1R,4R)-4-[(3S)-3-(2-{6-[4-(cyclopropylamino)-3-(propan-2-yl)-3H-imidazo[4,5-c]pyridin-6-yl]-2-oxo-1-[(1S,3S)-3-(piperidin-1-yl)cyclobutyl]-1,2-dihydrospiro[indole-3,4′-piperidin]-1′-yl}-2-oxoethyl)pyrrolidine-1-carbonyl]cyclohexyl]amino}-2,3-dihydro-1H-isoindole-1,3-dione] | 500 to 1000 | 50 to 70
8 | Cc1cc(F)c(Nc2nc(-c3ccc4c(c3)N([C@H]3C[C@@H](N5CCCCC5)C3)C(=O)C43CCN(C(=O)C4=CCN(C(=O)[C@H]5CC[C@H](Nc6cccc7c6C(=O)N(C6CCC(=O)NC6=O)C7=O)CC5)CC4)CC3)cc3ncn(C(C)C)c23)cc1C(=O)NC(C)C (mixture of isomers) [Example 36, 4-fluoro-2-methyl-5-{[6-(2-oxo-1′-{1-[(1R,4R)-4-({2-[(3RS)-2,6-dioxopiperidin-3-yl]-1,3-dioxo-2,3-dihydro-1H-isoindol-4-yl}amino)cyclohexanecarbonyl]-1,2,3,6-tetrahydropyridine-4-carbonyl}-1-[(1S,3S)-3-(piperidin-1-yl)cyclobutyl]-1,2-dihydrospiro[indole-3,4′-piperidin]-6-yl)-3-(propan-2-yl)-3H-imidazo[4,5-c]pyridin-4-yl]amino}-N-(propan-2-yl)benzamide] | 100 to 500 | 50 to 70
9 | Cc1cc(F)c(Nc2nc(-c3ccc4c(c3)N([C@H]3C[C@@H](N5CCCCC5)C3)C(=O)C43CCN(C(=O)C4=CCN(C(=O)C5CCN(c6ccc7c(c6)C(=O)N(C6CCC(=O)NC6=O)C7=O)CC5)CC4)CC3)cc3ncn(C(C)C)c23)cc1C(=O)NC(C)C (mixture of isomers) [Example 37, 5-[(6-{1′-[1-(1-{2-[(3RS)-2,6-dioxopiperidin-3-yl]-1,3-dioxo-2,3-dihydro-1H-isoindol-5-yl}piperidine-4-carbonyl)-1,2,3,6-tetrahydropyridine-4-carbonyl]-2-oxo-1-[(1S,3S)-3-(piperidin-1-yl)cyclobutyl]-1,2-dihydrospiro[indole-3,4′-piperidin]-6-yl}-3-(propan-2-yl)-3H-imidazo[4,5-c]pyridin-4-yl)amino]-4-fluoro-2-methyl-N-(propan-2-yl)benzamide] | 100 to 500 | 50 to 70
10 | CC(C)n1cnc2cc(-c3ccc4c(c3)N([C@H]3C[C@@H](N5CCCCC5)C3)C(=O)C43CCN(C(=O)C4C5CN(C(=O)C6CCN(c7ccc(C8CCC(=O)NC8=O)cn7)CC6)CC54)CC3)nc(NC3CC3)c21 (mixture of isomers) [Example 38, (3RS)-3-(6-{4-[6-({6-[4-(cyclopropylamino)-3-(propan-2-yl)-3H-imidazo[4,5-c]pyridin-6-yl]-2-oxo-1-[(1S,3S)-3-(piperidin-1-yl)cyclobutyl]-1,2-dihydrospiro[indole-3,4′-piperidin]-1′-yl}carbonyl)-3-azabicyclo[3.1.0]hexane-3-carbonyl]piperidin-1-yl}pyridin-3-yl)piperidine-2,6-dione] | 100 to 500 | 50 to 70
11 | CC(C)n1cnc2cc(-c3ccc4c(c3)N([C@H]3C[C@@H](N5CCCCC5)C3)C(=O)C43CCN(C(=O)C4C5CN(C(=O)C6CCN(c7ccc(C8CCC(=O)NC8=O)cn7)CC6)CC54)CC3)nc(Nc3ccccc3F)c21 (mixture of isomers) [Example 39, (3RS)-3-[6-(4-{6-[(6-{4-[(2-fluorophenyl)amino]-3-(propan-2-yl)-3H-imidazo[4,5-c]pyridin-6-yl}-2-oxo-1-[(1S,3S)-3-(piperidin-1-yl)cyclobutyl]-1,2-dihydrospiro[indole-3,4′-piperidin]-1′-yl)carbonyl]-3-azabicyclo[3.1.0]hexane-3-carbonyl}piperidin-1-yl)pyridin-3-yl]piperidine-2,6-dione] | < 100 | > 85
